Results on six compounds are retold here after US10071103B2, “Treatments for resistant acne” (VYOME BIOSCIENCES PVT. LTD., priority 2014, dated 2018).

The subject of assay [1] is IL-6. Put plainly: P. acnes-induced IL-6 release in THP-1 cells (ELISA). Type of assay: cell-based. Conditions: for Expression of Cytokines IL-6 (pg/ml) Mean: THP-1 cells, Table 71. The protocol:
(§1) Method: Preparation of Stimulant for Inflammation: P. acnes culture suspension was prepared in PBS and the cell number in the suspension was adjusted to approximately 5×10^8 CFU/ml by measuring the cell density using a Densimat. The bacterial suspension was then heat killed at 80° C. for 30 min and stored at −80° C. until further use.
(§2) Cells were seeded in a 96-well format (2×10^5 THP-1 cells per well) in media containing 10% FBS. The cells were stimulated to induce inflammatory cytokines using 3 McFarland equivalent heat-killed P. acnes. Cells in control wells were treated with PBS. One hour after induction with P. acnes, test agents were added to the induced cells at appropriate concentrations to be tested (compound 91 at 25 μg/ml). The plates were incubated at 37° C. for 24 hours. After 24 h, the plates were centrifuged to pellet the cells and the supernatants were collected. The cell culture supernatants thus obtained were analyzed for levels of cytokines (IL-1α, IL-1β, IL-6 and IL-8) by ELISA using R&D Systems kits for individual cytokines following the manufacturer's instructions.
(§3) Preparation of stimulant for inflammation: P. acnes culture suspension was prepared in PBS and the cell number in the suspension was adjusted to approximately 5×10^8 CFU/ml by measuring the cell density using a Densimat. The bacterial suspension was then heat killed at 80° C. for 30 min and stored at −80° C. until further use.
(§4) Cells were seeded in a 96-well format (2×10^5 THP-1 cells per well) in media containing 10% FBS. The cells were stimulated to induce inflammatory cytokines using 3 McFarland equivalent heat-killed P. acnes. Cells in control wells were treated with PBS. One hour after induction with P. acnes, test agents were added to the induced cells at appropriate concentrations (Besifloxacin at 10 and 30 μg/ml; Adapalene at 0.04 and 0.4 μg/ml). The plates were incubated at 37° C. for 24 hours. After 24 h, the plates were centrifuged to pellet the cells and the supernatants were collected. The cell culture supernatants thus obtained were analyzed for cytokine levels (IL-6 and IL-8) by ELISA using R&D Systems kits for individual cytokines following the manufacturer's instructions.
On the technique in general: In an ELISA, binding on a coated surface is turned into a signal by an enzyme label.

The test system of assay [2] is IL-8. The assay can be described thus: P. acnes-induced IL-8 release in THP-1 cells (ELISA). Type of assay: cell-based. Conditions: THP-1 cells, Table 71. The protocol:
as §1, §2, §3, §4

The test system of assay [3] is P. acnes clinical isolates. The assay can be described thus: MIC of P. acnes isolated from acne patients (clinical isolates).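 As to MIC: MIC in µg/mL.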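 As to all read-outs here: anaerobic 96-well plate assay at 37 °C over 72 h, with Alamar blue dye as read-out.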 Conditions: for MIC: Cutibacterium acnes, clinical isolate susceptible to clindamycin and erythromycin.
Method: P. acnes were cultured in Brain Heart Infusion Agar (BHIA) at 37° C. for 48 hours under anaerobic condition. […] For bacterial inoculum, P. acnes culture turbidity was adjusted to 0.5 McFarland standard (approximately 1.5×10^8) and further diluted (100 times with sterile BHI broth). Diluted P. acnes suspension (100 μl) was added to each well except sterility control wells (column 12 of 96 well plate). Inoculated plates were incubated at 37° C. for 72 hours under anaerobic condition. After incubation, MIC was determined by adding Alamar blue dye.
The subject of assay [4] is P. acnes MTCC 1951. Put plainly: MIC by micro broth dilution (Alamar blue), clindamycin-susceptible P. acnes. Conditions: Cutibacterium acnes, MTCC1951; Table 7; against P. acnes; read-out: MIC. Type of assay: cell-based, Propionibacterium acnes. As for the experimental part:
(§5) The plates were incubated at 37° C. for 48 h under anaerobic condition for P. acnes and 37° C. for 24 h for S. aureus The plates were read under Bio-Rad plate reader at 595 nm for optical density to generate the dose-response curves. The MIC of the test compound was recorded by addition of Alamar blue dye.
(§6) P. acnes (MTCC 3297, MTCC 1951& CCARM 9010) are cultured in Brain Heart Infusion (BHI) Broth at 37° C. for 48-72 h under anaerobic condition. The test compounds/formulations are initially diluted with suitable solvent and further diluted with BHI broth to get the required concentrations. Samples (100 μl) of different concentrations (prepared by serial dilution) are added to 96-well plate. To the wells, 100 μl of P. acnes BHI broth culture is added [culture turbidity adjusted against 0.5 McFarland standard (approx 1.5×10^8), and further diluted 100-fold with sterile BHI broth]. In addition Growth Control and Sterility Control are created using 100 μl each of P. acnes BHI broth culture and plain BHI broth, respectively.
(§7) Plates are incubated at 37° C. for 48-72 hrs under anaerobic condition. The plate is read under Bio-Rad plate reader @ 595 nm for optical density to generate the dose-response curves. The MIC of the test compound is recorded by addition of Alamar blue dye.
BHI broth and BHI agar media were prepared as per the manufacturer's instruction and autoclaved at 121° C. for 15 minutes. […] For MIC determination testing, gels are dissolved in the solvent and further diluted with BHI broth. Then, 96 wells plate are filled with 100 μl of BHI broth containing drug with different concentration to get the final concentrations of 0.06, 0.13, 0.25, 0.5, 1 and 2 μg/ml in different lanes (lane 1 to lane 6). Remaining lanes of the 96 well plate are used as growth control and sterility control. Finally, P. acnes culture suspension (approx 1.5×10^6) is added in all the wells except sterility control wells and plate is incubated at 37° C. for 48-72 h under anaerobic condition. At the end of 72 h, Alamar blue solution (20 μl) is added into the wells and incubated at 37° C. for 2 h. Plate is visualized for bacterial inhibitions and MIC values of the tested samples are determined. […]
(In general: Dilution methods test growth across graded concentrations, often in twofold steps.)

The subject of assay [5] is P. acnes MTCC 1951. Type of assay: cell-based, Propionibacterium acnes. The conditions noted are these: for MPC: P. acnes, 10^10 cells inoculum; for MPC/MIC: ratio against P. acnes. As for the experimental part:
3 to 4 Petri plates containing 48 h P. acnes culture was suspended in sterile Phosphate buffer saline, PBS (pH 7.2) and turbidity was adjusted to optical density of 1 at 600 nm (10^9 cells/ml). 50 ml of this culture suspension was centrifuged at 4000 rpm for 40 min. The supernatant was discarded and pellet resuspended in 250 μl of sterile PBS. 50 μl of these cell suspensions (10^10 cells) was spread over the plates containing various concentrations of antibiotics (around MIC range). Plates were incubated at 37° C. for 48 h and the lowest concentration of the drug that allowed no growth was taken as its MPC.

The test system of assay [6] is P. acnes CCARM 9010. Put plainly: MIC by micro broth dilution (Alamar blue), clindamycin-resistant/nonresponsive P. acnes. Conditions: clindamycin-nonresponsive CCARM 9010. Type of assay: cell-based, Propionibacterium acnes. The protocol: as §5, §6, §7
Setting [7] is: Cells + P. acnes + Adapalene 0.04 μg/ml.
The mark [8] stands for this setting: Cells + P. acnes + Adapalene 0.4 μg/ml.

Converted amounts (≈) assume the structure as drawn. Where two headings read alike, the source gives them in different places.

For the compound `COc1ccc(-c2ccc3cc(C(=O)O)ccc3c2)cc1C12CC3CC(CC(C3)C1)C2` [Adapalene, adapalene], the entries for the “Expression of Cytokines IL-6 (pg/ml) Mean” value in assay [1] (setting [7]) and in assay [1] (setting [8]) were 308.82 pg/mL and 162.76 pg/mL, respectively. In assay [1] (Example 61, besifloxacin 10, 30 μg/ml, adapalene 0.04, 0.4 μg/ml), the “Effect on P. acnes-induced IL-6 levels (in words)” value is “impart individual anti-inflammatory effects”. For the same compound, the entries for the “Expression of Cytokines IL-8 (pg/ml) Mean” value in assay [2] (setting [7]) and in assay [2] (setting [8]) were 2536.76 pg/mL and 2579.87 pg/mL, respectively.
Broadly, the MIC is the lowest concentration that inhibits growth of the organism. On to `CC[C@H]1OC(=O)[C@H](C)[C@@H](O[C@H]2C[C@@](C)(OC)[C@@H](O)[C@H](C)O2)[C@H](C)[C@@H](O[C@@H]2O[C@H](C)C[C@H](N(C)C)[C@H]2O)[C@](C)(O)C[C@@H](C)C(=O)[C@H](C)[C@@H](O)[C@]1(C)O` [Erythromycin, erythromycin], for which, in assay [3], the “Susceptibility of P. acnes isolated from volunteers V3 and V21 (in words)” value is listed as “resistance”. The “Susceptibility of clindamycin-nonresponder clinical isolates (in words)” value in assay [3] was “wide variation in sensitivity”. In assay [3], the “Susceptibility of clinical isolates susceptible to clindamycin and erythromycin (in words)” value is listed as “susceptible”. Also, the MIC in assay [3] (P. acnes strain V2-9), in assay [3] (P. acnes strain V2-10), in assay [3] (P. acnes strain V3-9), in assay [3] (P. acnes strain V3-10), in assay [3] (P. acnes strain V4-6) and in assay [3] (P. acnes strain V4-8) was less than 0.03 µg/mL throughout. Moreover, the MIC in assay [3] (P. acnes strain V4-13), in assay [3] (P. acnes strain V5-2), in assay [3] (P. acnes strain V5-5), in assay [3] (P. acnes strain V5-7), in assay [3] (P. acnes strain V6-5) and in assay [3] (P. acnes strain V6-6) was less than 0.03 µg/mL throughout. Moreover, the MIC was less than 0.03 µg/mL in assay [3] (P. acnes strain V6-7); less than 0.03 µg/mL in assay [3] (P. acnes strain V7-3); less than 0.03 µg/mL in assay [3] (P. acnes strain V7-4); less than 0.03 µg/mL in assay [3] (P. acnes strain V7-14); less than 0.09 µg/mL in assay [3] (P. acnes strain V9-6E); less than 0.09 µg/mL in assay [3] (P. acnes strain V12-2E). Moreover, the MIC was less than 0.09 µg/mL in assay [3] (P. acnes strain V13-3E); less than 0.09 µg/mL in assay [3] (P. acnes strain V14-2E); 0.19 µg/mL in assay [3] (P. acnes strain V15B-1E); 0.78 µg/mL in assay [3] (P. acnes strain V17-3E); 0.19 µg/mL in assay [3] (P. acnes strain V18-4E); less than 0.09 µg/mL in assay [3] (P. acnes strain V19-2E). For the same compound, the minimum inhibitory concentration (MIC) in assay [3] (P. acnes strain V20-5E) is less than 0.09 µg/mL.
As to `CN(C)c1ccc(O)c2c1C[C@H]1C[C@H]3[C@H](N(C)C)C(O)=C(C(N)=O)C(=O)[C@@]3(O)C(O)=C1C2=O` [Minocycline, minocycline], the MIC in assay [3] (P. acnes strain V2-9), in assay [3] (P. acnes strain V2-10), in assay [3] (P. acnes strain V3-9), in assay [3] (P. acnes strain V3-10), in assay [3] (P. acnes strain V4-6) and in assay [3] (P. acnes strain V4-8) was 0.06 µg/mL throughout. For the same compound, the MIC in assay [3] (P. acnes strain V4-13), in assay [3] (P. acnes strain V5-2), in assay [3] (P. acnes strain V5-5), in assay [3] (P. acnes strain V5-7), in assay [3] (P. acnes strain V6-5) and in assay [3] (P. acnes strain V6-6) was 0.06 µg/mL in each case. The MIC in assay [3] (P. acnes strain V6-7), in assay [3] (P. acnes strain V7-3), in assay [3] (P. acnes strain V7-4) and in assay [3] (P. acnes strain V7-14) was 0.06 µg/mL throughout.
Regarding `CC1CCc2c(N3CCC(O)CC3)c(F)cc3c(=O)c(C(=O)O)cn1c23` (stereo not drawn) [Nadifloxacin], the MIC in assay [4] stood at 0.13 µg/mL (≈ 0.361 µM). In assay [5], the MPC stood at 1.2 µg/mL and the MPC/MIC stood at 9.2. The MPC/MIC in assay [5] (listed as nadifloxacin) is given as roughly 8.
For `CC[C@H]1OC(=O)[C@H](C)[C@@H](O[C@H]2C[C@@](C)(OC)[C@@H](O)[C@H](C)O2)[C@H](C)[C@@H](O[C@@H]2O[C@H](C)C[C@H](N(C)C)[C@H]2O)[C@](C)(O)C[C@@H](C)/C(=N\OCOCCOC)[C@H](C)[C@@H](O)[C@]1(C)O` [Roxithromycin], the “Activity / bacterial killing, dose response curve (in words)” value in assay [6] is listed as “resistant”.
With `CC1Sc2c(C(=O)O)c(=O)c3cc(F)c(N4CCNCC4)cc3n21` (stereo not drawn) [Ulifloxacin], in assay [4], the MIC is 0.13 µg/mL (≈ 0.372 µM). In addition, in assay [5], the MPC was 1.2 µg/mL and the MPC/MIC was found to be 9.2.
